Tests used:
[1] = system: human tau P301S transgenic mice; test: Evaluation in human tau P301S transgenic mouse: ChAT positive cells in the medial septal area; type: in vivo; conditions: mean±SEM
Source text: Evaluation in Human Tau P301S Transgenic Mouse
(1) Compound Administration
In this study, the test compounds were orally administered to human tau P301S transgenic mice once a day for three months from four-month-old to seven-month-old. The vehicle used was 0.01 mol/L hydrochloric acid.
At the initial day of the administration (four-month-old) and at the next day of the final administration, mice of vehicle administration group and test compound administration group were anesthetized under pentobarbital (50 mg/kg, i.p.) and perfused with PBS. After the perfusion, the forebrain including the medial septal area was collected and fixed with 4% paraformaldehyde.
(3) Preparation of Brain Coronal Frozen Section
The collected forebrain including the medial septal area was immersed and shaken overnight in 4% paraformaldehyde. […]
The prepared brain coronal frozen sections were stained with DAB (DAB PEROXIDASE SUBSTRATE KIT (Vector, SK-4100)) using a ChAT antibody (Santa Cruz, S.C.-20672) as a primary antibody. The section image including the medial septal area as shown in “The mouse Brain in stereotaxic coordinates” (COMPACT THIRD EDITION, Keith B.J. Franklin & George Paxinos) was taken by an all-in-one fluorescence microscope (KEYENCE, BZ-X710) and ChAT positive cells around the major axis of the medial septal area were counted by BZ analysis software (KEYENCE). […] Data are expressed as the mean±SEM. […]

[2] = system: acetylcholine (ACh) in CSF; test: Measurement of acetylcholine (ACh) in rat cerebrospinal fluid (CSF); type: in vivo; conditions: Fischer344 rat, oral 10 mg/kg once a day for three days, CSF 24 hours after administration, LC-MS
Procedure: Measurement of Acetylcholine (ACh) in Rat Cerebrospinal Fluid (CSF)
Thus, the changes in acetylcholine in CSF were measured in order to determine the changes in intracerebral acetylcholine by the test compounds.
(2) Compound Administration
In this study, Fischer344 male rats (Charles River Laboratories Japan, Inc.) with a body weight of about 150 to 250 g were used. The test compounds were orally administered to the rats once a day at 10 mg/kg for three days. The vehicle used was 0.01 mol/L hydrochloric acid.
At 24 hours after the administration of the vehicle and the test compounds, the CSF was collected from cistema magna in a tube containing AchE inhibitors under pentobarbital anesthesia. The collected CSF was centrifuged at 3500×g at 4° C. for 10 minutes and the supernatant was collected. The collected supernatant was frozen with liquid nitrogen, and then stored at −80° C.
(4) Measurement of Ach by LC-MS
To 10 μL of the CSF was added 50 μL of acetylcholine-d9 chloride (ACh-d9) at a final concentration of 0.34 nmol/L as an internal standard. […] The supernatant was collected and subjected to LC/MS […], and Ach was detected as precursor ion at m/z 146.050 and as product ion at m/z 87.071 and ACh-d9 as an internal standard was detected as precursor ion at m/z 155.088 and as product ion at m/z 87.000. […]

SMILES	Ratio (%) of number of ChAT positive cells compared to that in the initial administration ([1]; oral 10 mg/kg once a day for three months (4 to 7 months old))	Amount (%) increased with respect to from the amount of ACh in CSF the vehicle administration group [2] [%]	Ratio (%) of number of ChAT positive cells compared to that in the initial administration ([1]; oral 5 mg/kg once a day for three months (4 to 7 months old))
CN1CCc2c(sc3nc4n(c(=O)c23)-c2ccc(F)cc2C(=O)N(C)C4)C1 [Example 1]	105.0 ± 4.0^# %	160.0	
CN1CCc2c(sc3nc4n(c(=O)c23)-c2sccc2C(=O)N(C)C4)C1 [Example 3, 5,10-dimethyl-5,6,9,10,11,12-hexahydropyrido[4″,3″:4′,5′]thieno[2′,3′:4,5]pyrimido[1,2-a]thieno[3,2-f][1,4]diazepine-4,13-dione]		156.8	105.3 ± 4.3^# %

From patent publication US10239889B1, “Pentacyclic compound” (Eisai R&D Management Co., Ltd., priority 2017, dated 2019)
